Data on 14 molecules can be found in ChEMBL document CHEMBL5518164, “Membrane-permeable tenofovir-di- and monophosphate analogues” (Eur J Med Chem, 2024).

Active and inactive are the calls of the source. The calls are words filed in the database; no cut-off is given here.

Data set [1] concerns Human immunodeficiency virus 2. In words: Antiviral activity against HIV-2 ROD infected in thymidine kinase deficient human CEM cells assessed as inhibition of virus-induced giant cell formation incubated for 4 to 5 days by light microscopy. To be noted: Human immunodeficiency virus 2, ROD, CCRF-CEM. It counts as functional, organism-based.
Data set [2] is described as follows: Cytotoxicity against human CEM cells assessed as inhibition of cell proliferation. It counts as toxicity, cell-based, CCRF-CEM.
The subject of data set [3] is Human immunodeficiency virus 2. In words: Antiviral activity against HIV-2 ROD infected in wild type human CEM/0 cells assessed as inhibition of virus-induced giant cell formation incubated for 4 to 5 days by light microscopy. It counts as functional, organism-based. To be noted: Human immunodeficiency virus 2, ROD, CCRF-CEM.
Data set [4] in a line: Selectivity index, ratio of CC50 for cytotoxicity against human CEM cells to EC50 for antiviral activity against HIV-2 ROD infected in thymidine kinase deficient human CEM cells. To be noted: read-out: Ratio CC50/EC50. Format: toxicity, cell-based.
The subject of data set [5] is Human immunodeficiency virus 1. Put plainly: Antiviral activity against HIV-1 HE infected in wild type human CEM/0 cells assessed as inhibition of virus-induced giant cell formation incubated for 4 to 5 days by light microscopy. Format: functional, organism-based. To be noted: Human immunodeficiency virus 1, HE, CCRF-CEM.
A short description of data set [6]: Half life of the compound in human CEM/0 cell extracts by RP18-HPLC analysis. It counts as ADME, CCRF-CEM.
The nature of data set [7]: Half life of the compound in phosphate buffer saline at pH 7.3 by RP18-HPLC analysis. Format: ADME.
Data set [8] is described as follows: Lipophilicity of the compound assessed as retention time by RP-HPLC analysis. It counts as physicochemical.
Data set [9] deals with Human immunodeficiency virus. In words: Substrate activity at HIV reverse transcriptase assessed as n+1 band formation incubated for 30 mins in presence of primer/template mixture and dNTPs by primer extension assay based fluorescence analysis.
Data set [10] can be described thus: Prodrug conversion of the compound in phosphate buffer saline assessed as (R)-9-(2-(phosphonomethoxy)propyl)adenine formation by measuring half life at pH 7.3 by RP18-HPLC analysis. It counts as ADME.
The nature of data set [11]: Half life of the compound in heparin-stabilized human plasma by HPLC analysis. Format: ADME, cell-free.
Data set [12] is described as follows: Half life of the compound in citrate-containing human plasma by HPLC analysis. It counts as ADME, cell-free.
Data set [13] concerns Human immunodeficiency virus. Put plainly: Substrate activity at HIV reverse transcriptase assessed as elongation of primer at 250 uM incubated for 30 mins in presence of primer/template mixture and dNTPs by primer extension assay based fluorescence analysis.
In data set [14] the test system is Human immunodeficiency virus. Put plainly: Substrate activity at HIV reverse transcriptase assessed as elongation of primer at 250 uM incubated for 30 mins in presence of primer/template mixture by primer extension assay based fluorescence analysis.
Data set [15] concerns the target T1, DNA polymerase subunit gamma-1 (Homo sapiens) (UniProt P54098).
T1 sequence (whole entry): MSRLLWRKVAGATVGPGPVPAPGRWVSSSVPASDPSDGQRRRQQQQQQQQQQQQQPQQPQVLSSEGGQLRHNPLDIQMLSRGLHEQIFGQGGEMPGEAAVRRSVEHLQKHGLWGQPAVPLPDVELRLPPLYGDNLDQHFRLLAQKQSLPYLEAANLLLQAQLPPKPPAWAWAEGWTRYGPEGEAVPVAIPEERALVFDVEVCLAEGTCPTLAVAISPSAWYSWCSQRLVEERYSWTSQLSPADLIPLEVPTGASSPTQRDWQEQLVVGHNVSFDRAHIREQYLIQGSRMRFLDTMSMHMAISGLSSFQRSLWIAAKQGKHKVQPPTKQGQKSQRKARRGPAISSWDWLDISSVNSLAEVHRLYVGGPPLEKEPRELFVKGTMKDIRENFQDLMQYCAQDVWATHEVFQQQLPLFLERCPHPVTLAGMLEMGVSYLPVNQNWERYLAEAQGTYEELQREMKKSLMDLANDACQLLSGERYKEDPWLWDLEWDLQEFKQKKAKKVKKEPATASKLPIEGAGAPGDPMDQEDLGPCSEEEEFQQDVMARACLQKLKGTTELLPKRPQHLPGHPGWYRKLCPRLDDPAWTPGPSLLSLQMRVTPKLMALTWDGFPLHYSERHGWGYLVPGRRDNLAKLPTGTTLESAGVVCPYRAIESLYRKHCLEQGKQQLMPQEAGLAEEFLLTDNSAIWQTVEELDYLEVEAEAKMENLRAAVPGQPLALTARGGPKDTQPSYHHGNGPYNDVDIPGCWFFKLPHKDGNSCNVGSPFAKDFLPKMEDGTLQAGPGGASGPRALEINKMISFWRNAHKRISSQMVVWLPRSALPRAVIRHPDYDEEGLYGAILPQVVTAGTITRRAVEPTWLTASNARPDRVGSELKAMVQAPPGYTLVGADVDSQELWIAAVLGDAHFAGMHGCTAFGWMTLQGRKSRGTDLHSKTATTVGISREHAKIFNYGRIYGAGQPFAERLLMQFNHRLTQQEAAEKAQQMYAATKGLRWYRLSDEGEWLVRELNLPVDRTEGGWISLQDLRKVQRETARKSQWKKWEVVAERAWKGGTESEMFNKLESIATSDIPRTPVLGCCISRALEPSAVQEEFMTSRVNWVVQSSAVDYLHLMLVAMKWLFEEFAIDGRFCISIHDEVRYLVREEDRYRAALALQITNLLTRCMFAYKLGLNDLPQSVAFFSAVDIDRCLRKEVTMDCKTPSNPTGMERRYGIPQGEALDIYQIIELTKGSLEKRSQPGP
Put plainly: Substrate activity at human DNA polymerase gamma assessed as elongation of primer at 250 uM incubated for 120 mins in presence of primer/template mixture by primer extension assay based fluorescence analysis.

The nature of data set [16]: Prodrug conversion of the compound in phosphate buffer saline assessed as (R)-9-(2-(phosphonomethoxy)propyl)adenine formation by measuring half life in presence of pig liver esterase at pH 7.3 by RP18-HPLC analysis. It counts as ADME, Sus scrofa.
Data set [17] in a line: Half life of the compound in phosphate buffer saline in presence of pig liver esterase at pH 7.3 by RP18-HPLC analysis. It counts as ADME, Sus scrofa.

For `CCCCCCCCCCCC(=O)Oc1ccc(COOP(=O)(O)OP(=O)(O)OP(=O)(O)CO[C@H](C)Cn2cnc3c(N)ncnc32)cc1`, the EC50 (as a rule, the concentration at which the effect is half-maximal) in data set [1] came out at 300 nM; in data set [3], 230 nM; in data set [5] it was 460 nM. For the same molecule, in [2], the CC50 (usually the concentration giving 50% cytotoxicity) is > 100000 nM. In [4], the selectivity ratio is > 333.
`CCCCCCCCCCCCCCCCCCP(=O)(OCCCCCCCC)OP(=O)(O)CO[C@H](C)Cn1cnc2c(N)ncnc21` (some centres not stated): the EC50 in data set [1] was found to be 22 nM; in [3] it was 32 nM; in [5], 73 nM. For the same molecule, the CC50 in [2] was 45200 nM. For the same molecule, the results for the half-life in [6] and in [7] were > 8 h and 26.5 h, respectively. The selectivity ratio in [4] came to 2050. For the same molecule, the Retention_time in data set [8] is 20.1 min.
For `Nc1ncnc2c1ncn2[C@H]1C[C@H](O)[C@@H](COP(=O)(O)OP(=O)(O)OP(=O)(O)O)O1`, the result in data set [9] was Active.
`CCCCCCCCCCCCCCCCCCOP(=O)(OCc1ccc(OC(=O)CC)cc1)OP(=O)(O)OP(=O)(O)CO[C@H](C)Cn1cnc2c(N)ncnc21` (some centres not stated): the EC50 in data set [1] stood at 67 nM; in data set [3], 120 nM; in data set [5] it was 390 nM. The CC50 in data set [2] amounted to 51100 nM. The half-life – broadly, the time in which the quantity being followed falls by half – in data set [6] is 2.6 h. The selectivity ratio in data set [4] stood at 762. Also, the t1/2 in [10] is 72 h. Also, the Retention_time in data set [8] is given as 16.8 min.
Regarding `CC(C)OC(=O)OCOP(=O)(CO[C@H](C)Cn1cnc2c(N)ncnc21)OCOC(=O)OC(C)C.O=C(O)/C=C/C(=O)O` [TENOFOVIR DISOPROXIL FUMARATE], the EC50 in [1] was 3 nM; in data set [3] it was 3 nM; in data set [5], 13 nM. Moreover, the CC50 in data set [2] was > 5000 nM. Also, the selectivity ratio in data set [4] is > 1430. Besides, the half-life in [7] was 27.8 h; in data set [11], 0.167 h; in data set [12] it was 0.167 h. The Retention_time in data set [8] worked out at 10.1 min.
Consider `C[C@H](Cn1cnc2c(N)ncnc21)OCP(=O)(O)OP(=O)(O)O`, for which the result in data set [13] and in data set [14] was Active. For the same molecule, in data set [15], the result was inactive.
On to `CCCCCCCCCCCCCCCCCCOP(=O)(OCc1ccc(OC(=O)CCCCCC)cc1)OP(=O)(O)OP(=O)(O)CO[C@H](C)Cn1cnc2c(N)ncnc21` (some centres not stated), for which the EC50 is 390 nM in data set [1], 10300 nM in [3] and 6960 nM in [5]. Moreover, in data set [2], the cytotoxic concentration (CC50) was > 100000 nM. In data set [6], this molecule had a half-life of 1.9 h. In addition, the selectivity ratio in data set [4] was > 256. In [10], the t1/2 is 111 h. Also, in data set [8], the Retention_time turned out to be 18.1 min.
Regarding `CC(C)OC(=O)[C@H](C)N[P@](=O)(CO[C@H](C)Cn1cnc2c(N)ncnc21)Oc1ccccc1.CC(C)OC(=O)[C@H](C)N[P@](=O)(CO[C@H](C)Cn1cnc2c(N)ncnc21)Oc1ccccc1.O=C(O)/C=C/C(=O)O` [TENOFOVIR ALAFENAMIDE FUMARATE], the half-life in data set [11] and in data set [12] was 1.5 h throughout.
On to `C[C@H](Cn1cnc2c(N)ncnc21)OCP(=O)(O)O` [TENOFOVIR ANHYDROUS], for which the 50% effective concentration (EC50) in [1] came out at 880 nM; in data set [3], 1760 nM; in data set [5], 2080 nM. Besides, the CC50 in data set [2] is > 100000 nM. Further, in data set [13], the outcome was Active. For the same molecule, the result in data set [14] and in data set [15] was inactive. Also, the selectivity ratio in data set [4] was > 113. For the same molecule, in [7], the half-life is > 1000 h. For the same molecule, in data set [8], the Retention_time was 6.6 min.
As to `CCCCCCCCCCCCCCCCCCOP(=O)(OCc1ccc(OC(=O)CCCCCCCC)cc1)OP(=O)(O)OP(=O)(O)CO[C@H](C)Cn1cnc2c(N)ncnc21` (some centres not stated), the EC50 in data set [1] worked out at 310 nM; in [3], 770 nM; in data set [5], 450 nM. Further, the CC50 in data set [2] was > 100000 nM. In addition, the half-life in data set [6] is 3.5 h. In addition, the t1/2 in data set [16] stood at 2.15 h; in data set [10], 24 h. The selectivity ratio in data set [4] is > 322. Besides, the Retention_time in data set [8] turned out to be 19.1 min.
On to `CCCCCCCCCCCOP(=O)(OCc1ccc(OC(=O)CCCCCCCC)cc1)OP(=O)(O)OP(=O)(O)CO[C@H](C)Cn1cnc2c(N)ncnc21` (some centres not stated), for which the EC50 in [1] came to 540 nM; in data set [3], 620 nM; in data set [5] it was 1230 nM. In data set [2], the 50% cytotoxic concentration (CC50) is > 100000 nM. In addition, the selectivity ratio in data set [4] is > 185.
Regarding `CCCCCCCCCCCCOP(=O)(OCCCCCCCCCCCC)OP(=O)(O)OP(=O)(O)CO[C@H](C)Cn1cnc2c(N)ncnc21`, the results for the EC50 in [1], in [3] and in data set [5] were 65 nM, 35 nM and 61 nM, respectively. Moreover, the CC50 in [2] came to 44700 nM. In addition, the values for the half-life in data set [17], in data set [6] and in [7] were > 100 h, > 20 h and 220 h, respectively. Also, the selectivity ratio in [4] is 688. In data set [8], the Retention_time amounted to 15.6 min.
Consider `CCCCOP(=O)(OCCCC)OP(=O)(O)OP(=O)(O)CO[C@H](C)Cn1cnc2c(N)ncnc21`, for which the figures for the EC50 in data set [1], in data set [3] and in [5] were 2540 nM, 1220 nM and 4270 nM, respectively. For the same molecule, in data set [2], the CC50 was > 100000 nM. For the same molecule, in [4], the selectivity ratio was > 39. In addition, the half-life in data set [7] is > 1000 h. Further, the Retention_time in data set [8] came to 9.7 min.
`CCCCCCCCCCCCCCCCCCOP(=O)(OCCCCCCCC)OP(=O)(O)OP(=O)(O)CO[C@H](C)Cn1cnc2c(N)ncnc21` (some centres not stated): the EC50 came out at 100 nM in data set [1], 50 nM in data set [3] and 160 nM in data set [5]. Moreover, in data set [2], the CC50 was found to be 44700 nM. Also, the half-life was > 8 h in [6] and 207 h in data set [7]. Besides, in data set [4], the selectivity ratio came out at 447. Moreover, the Retention_time in data set [8] turned out to be 16.6 min.
